Converted amounts (≈) assume the structure as drawn. Counter-ions that a name gives are not always drawn. Like-named read-outs stand apart in the source and are kept apart here.
Assays:
[1] = test system: thermophilic bacteria; assay: pH drop (acid formation) in liquid culture medium inoculated with crude juice from sugar beet extraction, 65° C.; type: cell-based, thermophilic bacteria (mixed culture); conditions: for behavior in such an example (effect on pH drop): as Example 2, compared with palmitic acid (basic effect lasting only a very short period); for concentration at which the pH drop is stopped / effect reached: additions of 10 mg/l
Description: (§1) If a sugar-containing substrate, e.g. a sugar-containing liquid culture medium, as it is common in microbiology, is either non-sterilized or incubated after inoculation with a bacterial strain, an acid formation will occur which is the easiest to recognize by a drop in the pH. The same phenomenon will occur when incubating normal sugar-containing plant juices, e.g. beet juice. In an industrial process, e.g. in the recovery of sugar juice from sugar beets, a drop in the pH by degradation of sugar means a loss of sugar and a need for an alkalizing agent. Moreover, a drop in the pH with an increase in the germ content in the substrate often is associated with an unpleasant gas and nitrite formation.
A liquid culture medium, as commonly used in microbiology and consisting of 10 g of Bacto-peptone, 5 g of meat extract, 5 g of yeast extract, 1 g of glucose, 1 g of K2HPO4, 0.1 g of MgSO4*7H2O and 0.01 g of FeSO4*7H2O per liter of distilled water, is sterilized in conventional manner for 20 min at 120° C. and inoculated, in a vessel kept at a temperature of 65° C., with 20 ml of crude juice from a large-scale sugar beet extraction, wherein the pH is registered on a recorder. Upon the growth of thermophilic bacteria, the pH drops progressively. This indicates a microorganism-caused acid formation.
A mixed culture according to Example 1 is prepared.

[2] = test system: thermophilic microorganisms; assay: germ-inhibiting activity (acid formation) under sugar production conditions, general statements; type: cell-based
Description: If at 35-45° C., i.e. at those temperatures, at which it is usually worked in microbiology, a culture medium is inoculated with non-sterile crude juice from a sugar beet extraction, in most cases it is difficult to stop, by the addition of fatty acids, an acid formation recognizable by a drop in the pH (particularly in mixed cultures in which insensitive microorganism can prevail). On the other hand, the acid formation at 55° C. and 65° C. is blocked by fatty acids, depending on the chain lengths, at concentrations of from 4 to 40 mg/l over a period of time of from 1 to 10 hours. While a maximum of C11-C12 is indicated for the effects observed at normal temperature (Ullmann 1975), for thermophilic microorganisms at the higher temperature the effective maximum lies at C14 (myristic acid)
as §1, with “formation. This arrangement also forms an efficient system for determining the germ-inhibiting activity of substances within the scope of the sugar production process.” for “formation.”
If during such an acid formation caused by thermophilic microorganisms at higher temperatures, for instance a solution of fatty acid compounds according to the invention is added, the acid formation and the drop in the pH associated therewith will stop starting from a certain concentration of 10 ppm. Thus, the disadvantages associated with the acid formation can be avoided by the addition of myristic acid, e.g., to a sugar-containing substrate. […]

[3] = test system: thermophilic bacteria; assay: determination of MIC by stepwise addition until stabilization of the pH, 65° C.; type: cell-based, thermophilic bacteria (mixed culture)
Description: To illustrate the antimicrobial activity within the scope of sugar production, examples are carried out with […] compounds by way of example. […] Upon the growth of thermophilic bacteria, the pH drops progressively. This indicates a microorganism-caused acid formation. […] The fatty acid compounds used in this Example are myristic acid and lauric acid, and their potassium salts, respectively. In this case, the acids were used both individually and in a 1:1 mixture, the salts were exclusively used in a 1:1 mixture.

[4] = Time 6.00 h, 10 mg/l added at pH 6.52 (5.10 h), 65° C.
[5] = Time 6.50 h, 10 mg/l added at pH 6.52 (5.10 h), 65° C.
[6] = Time 7 h, 10 mg/l added at pH 6.52 (5.10 h), 65° C.
[7] = Time 8 h, 10 mg/l at pH 6.52 and 4×10 mg/l between pH 6.49 and 6.36, 65° C.
[8] = Time 9 h, total 50 mg/l, 65° C.
[9] = dissolved in ethanol, 10 mg/l steps, maximum 150 mg/l, 65° C., read-out: Min. Inhibitory Conc. (MIC)
[10] = Time 4.50 h, 3×10 mg/l added between pH 6.74 and 6.49, 65° C.
[11] = Time 4.75 h, total 30 mg/l, 65° C.
[12] = Time 5 h, total 30 mg/l, 65° C.
[13] = Time 6 h, total 30 mg/l, 65° C.
[14] = Time 7 h, total 30 mg/l, 65° C.
[15] = Time 8 h, total 30 mg/l, 65° C.
[16] = Time 9 h, total 30 mg/l, 65° C.
[17] = Time 10 h, total 30 mg/l, 65° C.
[18] = Time 6 h, 10 mg/l as potassium salt added at pH 6.46 (5 h), 65° C.
[19] = Time 7 h, 10 mg/l as potassium salt added at pH 6.46 (5 h), 65° C.
[20] = Time 8 h, 10 mg/l as potassium salt added at pH 6.46 (5 h), 65° C.
[21] = Time 9 h, 10 mg/l as potassium salt added at pH 6.46 (5 h), 65° C.
[22] = Time 11 h, 10 mg/l as potassium salt added at pH 6.46 (5 h), 65° C.
[23] = Time 13 h, 10 mg/l as potassium salt added at pH 6.46 (5 h), 65° C.
[24] = Time 15 h, 10 mg/l as potassium salt added at pH 6.46 (5 h), 65° C.
[25] = Time 17 h, 10 mg/l as potassium salt added at pH 6.46 (5 h), 65° C.

Question: `CCCCCCCC/C=C\CCCCCCCC(=O)O` [oleic acid] was tested. Which “behavior in such an example (effect on pH drop)” value (“behavior in such an example” below) [1] did it give?
Answer: Quite similar

Question: Which “duration of effectiveness (pH drop stopped)” value ([1]; 10 mg/l, mixed culture, 65° C.) does the source give for `CCCCCCCCCCCCCCCC(=O)O` [palmitic acid] here?
Answer: 1.5-2 h

Question: And the “effect on pH drop” value ([1]; 10 mg/l, mixed culture, 65° C.)?
Answer: immediately completely stopped

Question: What about the pH [1, 4] of the same compound?
Answer: 6.53

Question: And the ΔpH/h [1, 4]?
Answer: −0.01

Question: And the pH [1, 5]?
Answer: 6.53

Question: And the ΔpH/h [1, 5]?
Answer: 0.00

Question: What about the pH [1, 6] of the same compound?
Answer: 6.49

Question: What about the ΔpH/h [1, 6] of the same compound?
Answer: 0.08

Question: And the pH [1, 7]?
Answer: 6.36

Question: What about the ΔpH/h [1, 7] of the same compound?
Answer: 0.13

Question: And the pH [1, 8]?
Answer: 6.29

Question: What about the ΔpH/h [1, 8] of the same compound?
Answer: 0.07

Question: What about the pH drop ([1]; renewed addition up to total 50 mg/l, retarded from 0.13) of the same compound?
Answer: 0.07 pH units per hour

Question: For `CCCCCCCCCCCCCCCCCCO` [stearyl alcohol], which effective concentration [2] is on record?
Answer: markedly higher concentrations have to be employed

Question: Which results are given for `CCCCCCCCCCCCCCO` [Myristyl Alcohol, 1-tetradecanol]?
Answer: effective concentration [2]: ≤ 10 ppm; MIC [3, 9]: 10 µg/mL (≈ 46.6 µM)

Question: With `CCO` [alcohol] as the compound, how does the “amount that impairs such a culture” value ([1]; mixed culture, 65° C.) read?
Answer: 40-60 ml alcohol per liter culture liquid

Question: What does the source list for `CCCCCCCCCCCC(=O)O` [lauric acid]?
Answer: MIC ([3]; dissolved in ethanol, steps of 2 mg/l, read-out: Min. Inhibitory Conc. (MIC)): 18 µg/mL (≈ 89.9 µM); MIC ([3]; text summary of Example 9, read-out: MIC (concentration successfully used)): 18000 µg/mL (≈ 89900 µM); effect on pH drop ([1]; 20 mg/l (two additions), mixed culture, 65° C.): does not have any effect; pH [1, 10]: 6.49; ΔpH/h [1, 10]: 1.00; pH [1, 11]: 6.49; ΔpH/h [1, 11]: 0.00; pH [1, 12]: 6.49; ΔpH/h [1, 12]: 0.00; pH [1, 13]: 6.50; ΔpH/h [1, 13]: −0.01; pH [1, 14]: 6.51; ΔpH/h [1, 14]: −0.01; pH [1, 15]: 6.52; ΔpH/h [1, 15]: −0.01; pH [1, 16]: 6.52; ΔpH/h [1, 16]: 0.00; pH [1, 17]: 6.53; ΔpH/h [1, 17]: −0.01; concentration at which the pH drop is stopped / effect reached ([1]; mixed culture, 65° C.): 30 mg/l

Question: For `CCCCCCCCCCCCCCCCCCCCCC(=O)O` [behenic acid, reference compound], which “behavior in such an example” value [1] is on record?
Answer: does not exhibit any effect

Question: For `CCCCCCCCCCCCCC(=O)OC` [methyl myristate], which inhibitory concentration [2] is on record?
Answer: approximately 100 mg/ml

Question: Which results are given for `CCCCCCCCCCCCCC(=O)O` [myristic acid as potassium salt, myristic acid]?
Answer: duration of effectiveness (pH drop stopped) ([1]; 10 mg/l, mixed culture, 65° C.): at least 12 h; effect on pH drop ([1]; 10 mg/l, mixed culture, 65° C.): suddenly and lastingly be stopped; pH [1, 18]: 6.46; ΔpH/h [1, 18]: 0.00; pH [1, 19]: 6.46; ΔpH/h [1, 19]: 0.00; pH [1, 20]: 6.47; ΔpH/h [1, 20]: −0.01; pH [1, 21]: 6.46; ΔpH/h [1, 21]: 0.01; pH [1, 22]: 6.46; ΔpH/h [1, 22]: 0.00; pH [1, 23]: 6.46; ΔpH/h [1, 23]: 0.00; pH [1, 24]: 6.45; ΔpH/h [1, 24]: 0.00; pH [1, 25]: 6.45; ΔpH/h [1, 25]: 0.00

Question: For `CCCCCCCCCCC(=O)O` [undecanoic acid], which “concentration at which the pH drop is stopped / effect reached” value ([1]; mixed culture, 65° C.) is on record?
Answer: 40 mg/l

Question: Which “concentration at which the pH drop is stopped / effect reached” value ([1]; mixed culture, 65° C.) does the source give for `C/C=C/C=C/C(=O)O` [sorbic acid, reference compound] here?
Answer: > 150 mg/l

Question: For `CCCCCCCCCCCCCCCCCC(=O)O` [stearic acid], which “behavior in such an example” value [1] is on record?
Answer: Quite similar

Question: For `CCCCCCCCCCCCCC(=O)OCC` [Ethyl-Myristate, reference compound], which MIC [3, 9] is on record?
Answer: > 150 µg/mL

Question: Which MIC [3, 9] does the source give for `CCCCCCCCCCCCCC(=O)OCCC` [Propyl-Myristate, reference compound] here?
Answer: > 150 µg/mL

Source: patent publication US7575640B2, “Method for producing sugar and sugar-containing products from sugar-containing plant raw materials” (Zuckerforschung Tulln Gesellschaft m.b.H., priority 2003, dated 2009)
